Our source for the mortality values is patent US11490622B2, “Substituted heterocycles as harmful arthropod controlling agents” (SUMITOMO CHEMICAL COMPANY, LIMITED, priority 2017, dated 2022).

In general, mortality refers to the percentage killed.

Assay [1] deals with Western corn rootworms (Diabrotica virgifera virgifera). Kind of assay: Test method 5: corn seedling immersed in diluted solution, Western corn rootworm larvae. The class given is in vivo. The following applies: 120 h, corn seedling immersed 30 seconds, second instar larvae, after 5 days, 25° C., read-out: mortality of insects. The procedure: Each 1 mg of the test compounds is dissolved into 50 μL of a mixed solution of polyoxyethylene sorbitan mono-cocoate and acetone (polyoxyethylene sorbitan mono-cocoate:acetone=5:95 (v/v ratio)). Thereto is added water containing 0.03% by volume of Shindain (registered trademark) to prepare a diluted solution containing a prescribed concentration of the test compound.
A young entire seedling of Corns (Zea mays) is immersed into the diluted solution for 30 seconds. Thereafter, each two grains of the seedlings are installed in a plastic petri dish ([…]), and 10 Western corn rootworms (Diabrotica virgifera virgifera) at the second instar larval stage are released into the dish. After 5 days, the number of the dead insects is counted, and the mortality of insects is calculated by the following equation. Mortality (%)={Number of dead insects/10}×100
Present compound Nos: 1, 4, 7, 9 to 13, 23, 24, 26 to 29, 32, 33, 35, 38, 39, 41, 43, 44, 47, 48, 59, 60, 62, 63, 67 to 70, 73 to 83, and 96

The subject of assay [2] is tobacco cutworms (Spodoptera litura). Kind of assay: Test method 3: sprayed cabbage seedling, tobacco cutworm larvae. The following applies: 120 h, sprayed 20 mL/seedling on cabbage, second instar larvae, after 5 days, 25° C., read-out: mortality of insects. The class given is in vivo. The procedure: Test compounds are made to a formulation according to a similar method to that described in the Formulation example 5, and thereto is added water containing 0.03 v/v % of Shindain (registered trademark) to prepare a diluted solution containing a prescribed concentration of the test compound.
Cabbage (Brassicae oleracea) seedling (on the developmental stage of the second to third true leaf) is planted in a cup, and the diluted solutions are sprayed into the seedling at a ratio of 20 mL/seedling. Thereafter, the stem and leaf thereof is cut out and then is installed into a cup that is covered with filter paper on the bed of the cup. Five (5) tobacco cutworms (Spodoptera litura) at the second instar larval stage are released into the cup. After 5 days, the number of the surviving insects is counted, and the mortality of insects is calculated by the following equation. Mortality (%)=(1−Number of surviving insects/5)×100
Present compound Nos: 1, 3, 4, 6 to 12, 23, 25 to 30, 32, 35 to 43, 47 to 49, 92, 93, 97, and 107

Structures are written as SMILES.

In the case of `CCSc1c(-c2ccc(OCC(F)(F)C(F)(F)F)n(C)c2=O)nc2ccc(C(F)(F)F)cn12` [compound 1], the mortality at 500 ppm in assay [1] and in assay [2] was no less than 80% each time.
